The source of these data is patent US5106857A, “N-(1-methyl-3-pyrrolidinyl)-1-(phenylmethyl)-1H-benzimidazol-2-amine and analogs as antiarrhythmic and muscle relaxing agents” (A. H. Robins Company, Incorporated, priority 1991, dated 1992).

Usually ED50 stands for the dose at which the effect has come halfway, by size or by number of responders.

Each structure is given as a SMILES string.

Assay [1] relates to cardiac arrhythmias (coronary artery occlusion). In words: Coronary artery ligation induced arrhythmias (conscious dogs). The assay is classed as in vivo, dog (adult mongrel). The settings on record: for Antiarrhythmic Activity: Number of dogs in which drug is considered active/number treated: active = normal sinus rhythm within 2 hours. The procedure:
Cardiac arrhythmias in dogs are induced by surgically restricting blood flow in a coronary artery. The test compound is administered intravenously and the heart rate and number and percentage of ectopic beats recorded at 15 minute intervals.
Adult mongrel dogs which are in the conscious state were used for the test and cardiac arrhythmias were induced by prior (22-24 hr) surgical preparation in which blood flow through a coronary artery was occluded by use of a constrictor device as reported by Smith et al, 1973. A Grass Model 79 Polygraph was used for recording the electrocardiogram (Grass 7P4 Preamplifier).
The test compound was administered by infusion (Harvard Model 942 Infusion Pump) into a saphenous vein to the test group of dogs at a rate of 0.5 mg/kg/min. Concentration of compound was adjusted according to the weight of the dog to allow a volume of infusion of 0.5 ml/min. Following the administration of the test compound, the heart rate, number of ectopic beats (ectopic beats/HR×1000) were recorded at 15 min intervals. The compound was considered active if it abolished the ectopic ventricular frequency and caused a return to normal sinus rhythm within 2 hours of administration. Cardiac arrhythmias produced by modification of method of Harris, 1950, Circulation 1, 1318, as reported by Smith et al, 1973, Pharmacologist 15, 192.

Assay [2] has as its system morphine-induced Straub Tail. In words: Morphine-induced Straub Tail in Mice Test (muscle relaxant). The assay is classed as in vivo. The settings on record: scored 30 min after test compound; for ED50: Mus musculus, 0.5 h, IP, morphine sulfate 60 mg/kg s.c. 15 min later, read-out: Straub Tail Inhibition ED50. The procedure: Administration of morphine sulfate to a mouse causes the tail to become elevated perpendicular to the body. […] The test procedure relied on to indicate positive muscle relaxant activity is the morphine-induced Straub Tail in Mice Test described by G. D. Novak in DRUG DEVELOPMENT RESEARCH (1982) 2: 383-386, except 8 animals per group were used per test rather than 10. The test is summarized as follows: The test drug, reference drug, and control articles to be administered are prepared in saline, 0.5% aqueous methylcellulose suspension or other, depending on solubility, in such concentration that the volume administered is 10 ml/kg. The initial screening dose of the test drug is usually 100 mg/kg. Groups of 8 mice are given an IP dose of a compound or vehicle prepared as described above. After 15 min, mice are administered morphine sulfate, 60 mg/kg in saline, subcutaneously. Fifteen minutes after administration of morphine (i.e., 30 min after test compound administration), mice were scored for presence of Straub Tail defined as an elevation of the tail at least 90 degrees from the horizontal. An ED50 value may be determined from at least three logarithmically spaced doses by the method of Litchfield and Wilcoxon (1949), J. PHARMACOL. EXP. THER. 96: 99-113.

On to `CN1CCC(Nc2nc3ccccc3n2Cc2ccccc2)C1` (stereo not shown) [Compound 3, N-(1-Methyl-3-pyrrolidinyl)-1-(phenylmethyl)-1H-benzimidazol-2-amine], for which the “Antiarrhythmic Activity: Number of dogs in which drug is considered active/number treated” value in assay [1] (dose 7 mg/kg IV) was 7/8. Also, the median effective dose (ED50) in assay [2] was 21 mg/kg.

Consider `CN1CCC(Nc2nc3ccccc3n2Cc2ccccc2)CC1` [Compound 4, N-(1-Methyl-4-piperidinyl)-1-(phenylmethyl)-1H-benzimidazol-2-amine], for which the “Antiarrhythmic Activity: Number of dogs in which drug is considered active/number treated” value in assay [1] (dose 9 mg/kg IV) is 2/6. Besides, the “Straub Tail Inhibition %” value in assay [2] (dose 100 mg/kg IP) is -25%.

On to `CCN1CCC(Nc2nc3ccccc3n2CC)C1` (stereo not shown) [Compound 1, 1-Ethyl-N-(1-ethyl-3-pyrrolidinyl)-1H-benzimidazol-2-amine], for which the “Antiarrhythmic Activity: Number of dogs in which drug is considered active/number treated” value in assay [1] (dose 5 mg/kg IV) was 1/2. In addition, in assay [2], the median effective dose (ED50) was 36 mg/kg.

Take `CCn1c(NC2CCN(C)C2)nc2ccccc21` (stereo not shown) [Compound 2, 1-Ethyl-N-(1-methyl-3-pyrrolidinyl)-1H-benzimidazol-2-amine]: the “Antiarrhythmic Activity” value in assay [1] (dose 7 mg/kg IV) is recorded as “partially active (Reduces ectopic beats from 50-99%)”.
